The test system of the assay is peripheral blood mononuclear cells (PBMCs). Nature of the assay: XF substrate oxidation stress test (Seahorse XFp, oxygen consumption rate). Format: cell-based, human. Conditions: for basal respiration after blocking / maximal respiration after blocking: PBMCs of patients with COVID-19, BPTES 3 μM, etomoxir 4 μM, UK5099 2 μM. On the procedure: Blood samples were obtained from the study participants. PBMCs were separated and plated on XFp eight-well polystyrene plates designed for the Seahorse XFp analyzer (Agilent Technologies, Santa Clara, Calif.) within 2 h. The Seahorse XFp analyzer (Agilent Technologies) was used to measure basal, ATP-linked, and maximal oxygen consumption rate (OCR); reserve capacity; and extracellular acidification rate (ECAR).
OCR, a measurement of mitochondrial respiration, and ECAR, which correlates to the number of protons released from the cell with potential contribution from glycolysis and the Krebs cycle, were measured in the presence of specific mitochondrial activators and inhibitors. Oligomycin (ATP synthase blocker) was used to measure ATP turnover and to determine proton leak; the mitochondrial uncoupler carbonyl cyanide 4-[trifluoromethoxy] phenylhydrazone (FCCP) was used to measure maximum respiratory function (maximal OCR).
Reserve capacity was calculated as maximal OCR minus the basal respiration.
For a measurement of basal respiration, three measurements were taken before injecting ATP synthase inhibitor oligomycin at 0.75 μM (final concentration). FCCP was then injected at 0.75 μM. Finally, a mixture of rotenone and antimycin A (1 μM) was injected. Mitochondrial basal respiration, proton leak, reserve capacity, and maximal respiration were measured after correcting for nonmitochondrial respiration.
OCR and ECAR rates were normalized to cell count for PBMCs.

As for `N#C/C(=C\c1cn(-c2ccccc2)c2ccccc12)C(=O)O` [UK5099], the “basal respiration after blocking” value came to 128±5 and the “maximal respiration after blocking” value is given as 254±24. Also, the “maximal respiration after blocking the glucose pathway” value (PBMCs of healthy controls (HC), before blocking=37±25) was determined as 34±5. The “basal respiration after blocking the glucose pathway” value (PBMCs of healthy controls (HC), before blocking=80±33) is recorded as 52±28. Under “PBMCs of patients with chest infection, before blocking=200±35”, the “basal respiration after blocking the glucose pathway” value is reported as 195±33. Also, the “maximal respiration after blocking the glucose pathway” value (PBMCs of patients with chest infection, before blocking=589±16) stood at 558±19.

Take `CCOC(=O)[C@@]1(CCCCCCOc2ccc(Cl)cc2)CO1` [etomoxir]: the “basal respiration after blocking” value was 128±2 and the “maximal respiration after blocking” value was determined as 255±16.
